Measured values taken from patent publication US20080045495A1, “Treatment of Patients with Cystic Disease by Alteration of Fibrocystin Proteolysis” (BOARD OF REGENTS, THE UNIVERSITY OF TEXAS SYSTEM, priority 2006, published 2008).
Square brackets hold non-standard residues; d marks the D form. Peptide text beside a SMILES is read from it. * marks the point of attachment. Nle = CCCC[C@H](N)C(=O)O; Cbz = O=C(OCc1ccccc1)*

Legend:
Format in all cases: cell-based, human
[1] = test system: fibrocystin cleavage in HEK-293 cells; test: Luciferase reporter assay of fibrocystin cleavage (pFC-GV / pG5-luc) in HEK-293 cells; conditions: for cleavage of fibrocystin or stability of proteolytic fragments (luciferase activity): HEK-293, 12 hours
Experimental: Reporter Gene Assays—mIMCD-3 cells, HEK-293 cells, or HeLa cells were plated in 6-well dishes (3×10^5 cells/well) and cotransfected with 0.05 μg phRL-TK(Int−) encoding Renilla luciferase (Promega, Madison, Wis.), 0.1 μg Photinus luciferase reporter plasmids, and 0.01-0.3 μg effector plasmids. Luciferase assays were performed as described previously (Hiesberger, 2004). Relative luciferase activity was calculated as the ratio of Photinus and Renilla luciferase.
(§1) FIG. 4 A is an image of a gel illustrating mIMCD3/FC cells were grown for 4 days and incubated with 0.1 μM thapsigargin (lane 2), 5 mM caffeine (lane 3), 75 μM dantrolene (lane 5), 200 μM ruthenium red (lane 7), or no additions (lanes 1, 4 and 6). After 2 hours, media were replaced with media lacking serum but containing the same supplements, and, in addition, 10 nM mifeprisone. Cell lysates were prepared after 24 hours and analyzed by immunoblotting using anti-V5 antibody. FIG. 4B is a graph of mIMCD-3 cells were transfected with 0.2 μg pG5-luc and either 0.2 μg pFC-GV or 0.2 μg pLDLR-GV. After 24 hours, cells were incubated in serum-free media in the presence or absence of 75 μM dantrolene. Relative luciferase activity was determined after 48 h. Data presented are mean ±SE of three separate transfections. The fibrocystin/Gal4-VP16 fusion protein is shown schematically below. Shaded box indicates the transmembrane segment; filled boxes indicate the N-terminal signal sequence and the C-terminal Gal4-VP16 fusion protein. FIG. 4C is an image of a gel illustrating HEK-293 cells transfected with 6 μg pFC-V5, and 8 hours later incubated in serum-free media containing 1-8 mM caffeine, 0.5 μM calphostin, or no additions. Cells were lysed after 16 h, and extracts were analyzed by immunoblotting using anti-V5 antibody. FIG. 4D is a graph of HEK-293 cells transfected with 0.2 μg pFC-GV and 0.2 μg pG5-luc. After 24 hours, cells were incubated in serum-free media containing 5 mM caffeine or no additions. Luciferase activity was measured after 12 hours. Data presented are mean ±SE of three separate transfections. FIG. 4E is an image of a gel illustrating HEK-293 cells stably expressing the m3 muscarinic receptor (lanes 1-4) and untransfected HEK-293 cells (lanes 5-8) were transfected with 6 μg pFC-V5. […] Cells were lysed after 16 hours, and extracts were analyzed by immunoblotting using anti-V5 antibody.
To quantitatively measure fibrocystin cleavage, a luciferase assay was developed that was similar to the ones employed to quantify the proteolytic cleavage of amyloid precursor protein (APP) and low density lipoprotein receptor related protein-1 (LRP1) (Cao, 2001; May, 2003). A plasmid (FC-GV) encoding the synthetic transcription factor Gal4-VP16 fused to the C-terminus of fibrocystin was generated. Proteolytic cleavage of the fibrocystin fusion protein releases Gal4-VP16, which translocates to the nucleus and activates a Gal4-responsive luciferase reporter gene (pG5-luc). Therefore, luciferase expression correlates with fibrocystin cleavage.
To quantify fibrocystin proteolysis in response to intracellular Ca^2+ release, the luciferase reporter assay was employed. HEK-293 cells were cotransfected with the plasmids pFC-GV and pG5-luc and incubated with either 5 mM caffeine or vehicle (as a control).
FIG. 5A is an image of a gel that illustrates HEK-293 cells were transfected with 6 μg pFC-V5.

[2] = test system: fibrocystin cleavage in mIMCD3/FC cells; test: Immunoblot (anti-V5) of fibrocystin proteolytic fragments in mIMCD3/FC cells; conditions: 30 hours; for cleavage of fibrocystin or stability of proteolytic fragments: FIG. 9
[3] = test system: fibrocystin cleavage in HEK-293 cells; test: Immunoblot (anti-V5) of fibrocystin proteolysis in HEK-293 cells transfected with pFC-V5
Experimental: as §1
FIG. 5A is an image of a gel that illustrates HEK-293 cells were transfected with 6 μg pFC-V5. […] Fourteen hours later, cellular proteins were extracted and analyzed by immunoblotting using anti-V5 antibody. FIG. 5B is an image of a gel mIMCD3/FC cells were grown for 4 days, and expression of fibrocystin was induced by addition of 10 nM mifepristone. After 24 hours, media were supplemented with 0.1, 0.5, or 1 μM calphostin C. Thirty hours later, cells were harvested, and proteins were analyzed by immunoblotting using anti-V5 antibody. FIG. 5C is an image of a gel illustrating HEK-293 cells were transfected with 3 μg pFC-V5 and either 3 μg of the empty vector pEF-neo (lanes 1 and 3) or 3 μg pEF-PKCαA/E (lanes 2 and 4). After 12 hours media were changed to media containing 10% FCS (lanes 1 and 2) or 0.2% BSA (lanes 3 and 4). Forty-eight hours later, cells were harvested, and proteins were subjected to immunoblotting using anti-V5 antibody. FIG. 5D is a plot illustrating HEK-293 cells transfected with 0.2 μg pG5-luc and 0.2 μg pFC-GV, pLDLR-GV and/or pEF-PKCαA/E. After 16 hours, media were changed to serum-free media containing 100 nM PMA or 500 μM Br-cAMP. Twenty-four hours later, cells were harvested, and relative luciferase activities were determined. Data are the mean ±SE of three independent transfections.

[4] = 0.1, 0.5, or 1 μM calphostin C 24 hours after induction, FIG. 5B

Molecule: NCCOB(c1ccccc1)c1ccccc1 [2-APB]
- cleavage of fibrocystin or stability of proteolytic fragments (luciferase activity) ([1]; 50 μg/ml 2-APB, FIG. 11): modulated

Molecule: CCCC[C@@H](C=O)NC(=O)[C@H](CC(C)C)NC(=O)[C@H](CC(C)C)NC(C)=O [ALLN, Ac-Leu-Leu-Nle-CHO] (Ac-Leu-Leu-[Nle]-aldehyde)
- cleavage of fibrocystin or stability of proteolytic fragments ([2]; 10 μM ALLN): altered
- abundance of fibrocystin proteolytic fragments ([3]; 10 μM ALLN versus vehicle, 14 hours, HEK-293, FIG. 8): alteration of the abundance

Molecule: C=C1[C@@H](C)[C@H]2[C@H](Cc3ccccc3)NC(=O)[C@]23OC(=O)/C=C/[C@H](O)CCC[C@@H](C)C/C=C/[C@H]3[C@@H]1O [Cytochalasin B]
- cleavage of fibrocystin or stability of proteolytic fragments (luciferase activity) ([1]; 10 μM Cytochalasin B, FIG. 11): modulated

Molecule: C/C1=C/C(=O)O[C@@H]2C[C@@H](CC[C@H](C)/C=C\CC1)O[C@@](O)([C@@H]1CSC(=O)N1)C2 [Latrunculin B]
- cleavage of fibrocystin or stability of proteolytic fragments (luciferase activity) ([1]; 2 μg/ml Latrunculin, FIG. 11): modulated

Molecule: CC(C)C[C@@H](C=O)NC(=O)[C@H](CC(C)C)NC(=O)[C@H](CC(C)C)NC(=O)OCc1ccccc1 [MG-132, Carbobenzoxy-L-leucyl-L-leucyl-L-leucinal] (Cbz-Leu-Leu-Leu-aldehyde)
- fibrocystin cleavage products ([2]; 2 μM MG-132 in combination with 20 μM ATP, FIG. 7): increased presence of cleavage products
- fibrocystin cleavage products ([2]; 2 μM MG-132 versus vehicle, FIG. 6): increase of fibrocystin cleavage products

Molecule: COC(=O)Nc1nc2ccc(C(=O)c3cccs3)cc2[nH]1 [Nocodazole]
- cleavage of fibrocystin or stability of proteolytic fragments (luciferase activity) ([1]; 10 μg/ml Nocodazole, FIG. 11): modulated

Molecule: CCCCCCCCCCCCCC(=O)O[C@@H]1[C@@H](C)[C@@]2(O)[C@@H](C=C(CO)C[C@]3(O)C(=O)C(C)=C[C@@H]23)[C@@H]2C(C)(C)[C@]12OC(C)=O [PMA, phorbol 12-myristate 13-acetate]
- increase of luciferase activity ([1]; 100 nM PMA, serum-free media, HEK-293, 24 hours, FIG. 5D): 27 fold
- proteolytic cleavage of fibrocystin ([3]; 100 nM PMA, HEK-293, 14 hours, FIG. 5A): marked increase
- total expression of fibrocystin (CMV promoter) ([3]; 100 nM PMA, HEK-293, FIG. 5A): increased

Molecule: CC(=O)O[C@H]1C(=O)[C@@]2(C)[C@H]([C@H](OC(=O)c3ccccc3)[C@]3(O)C[C@H](OC(=O)[C@H](O)[C@@H](NC(=O)c4ccccc4)c4ccccc4)C(C)=C1C3(C)C)[C@]1(OC(C)=O)CO[C@@H]1C[C@@H]2O [Taxol]
- cleavage of fibrocystin or stability of proteolytic fragments (luciferase activity) ([1]; Taxol in serum-free media, FIG. 10): modulated

Molecule: CC(C)C[C@@H](C=O)NC(=O)[C@H](CC(C)C)NC(=O)[C@@H](NC(=O)OCc1ccccc1)C(C)C [Z-VLL-CHO, Z-Val-Leu-Leu-CHO] (Cbz-Val-Leu-Leu-aldehyde)
- cleavage of fibrocystin or stability of proteolytic fragments ([2]; 15 μM Z-VLL-CHO): altered

Molecule: C[N+](C)(C)CCOC(N)=O [carbachol]
- fibrocystin cleavage ([3]; 100 μM carbachol, HEK-293 cells without m3 receptor, 16 hours, FIG. 4E): only in HEK-293(m3) cells

Molecule: calphostin C
- expression levels of fibrocystin [2, 4]: did not alter
- fibrocystin proteolysis [2, 4]: dose-dependent inhibition
- caffeine-induced fibrocystin proteolysis ([3]; 0.5 μM calphostin with caffeine, HEK-293, FIG. 4C): prevented
- PMA-induced increase of proteolytic cleavage ([3]; pretreatment with 0.5 μM calphostin C, 100 nM PMA, HEK-293, FIG. 5A): prevented
